Blank lines part the entries; values can stand above or below the molecule they belong to. Where no end group is shown, it is not given here. The star is where a group is joined. Biotin = O=C1N[C@H]2[C@H](CS[C@H]2CCCCC(=O)*)N1
Legend:
MAGEC2(129-339) protein = test: PEPSCAN ELISA of EID2 mutant peptides; type: binding, human; settings: His-S-MAGEC2(129-339) 200-400 nM, 450 nm; for binding affinity to MAGEC2 relative to wild-type peptide: biotinylated peptide 400 nM on streptavidin-coated plates, 4°C overnight, anti-His/peroxidase, TMB, mean of 3 independent measurements, background = His-hTRF2 control; for binding affinity to MAGEC2 compared with wild-type peptide (in words): biotinylated peptide 400 nM, 3 independent measurements
Description: A peptide library of the alanine mutant peptides (Table 1) of the aa 197-217 region of the human EID2 protein was obtained from Mimotopes (Australia). The library was linked to biotin via an additional peptide spacer of serine–glycine–serine–glycine. Each well on ELISA 96-well plates was coated with 100 µl of 5 µg/ml streptavidin (Sigma), incubated overnight at 37°C and then blocked with 3% bovine serum albumin (BSA) in PBS for 2 h at room temperature. The biotinylated peptides (400 nM, in PBS with 0.1% BSA) were applied into wells to saturate their surface and incubated at room temperature for 1 h. The plates were washed three times with 0.1% Tween 20 in PBS and then His-S-MAGEC2(129-339) protein was added (200–400 nM). Plates were incubated at 4°C overnight before washing (as above) to remove unbound protein. First anti-His antibody (Sigma; diluted 1/1000 in PBS with 1% BSA) was incubated for 2 h, washed three times and secondary peroxidase-conjugated rabbit-antiserum against mouse immunoglobulins (DAKO; diluted 1/1000 in PBS with 1% BSA) was added for 1 h (at 4°C). Peroxidase enzyme activity was measured with tetramethylbenzidine and the results were monitored using an automatic ELISA plate reader at a wavelength 450 nm.

necdin (aa 1-321) = test: Pull-down of biotin-tagged EID2 peptides on streptavidin-agarose beads; type: binding, human; settings: in vitro translated necdin, 2 h at 4°C in PBS, SDS-PAGE, phosphorimaging
Description: Biotin-tagged EID2 peptides were preincubated overnight with streptavidin-agarose beads (Thermo Scientfic) at 4°C. The beads were washed 2 times with 0.1% Tween 20 in PBS buffer, then in vitro-expressed proteins in a total volume of 200 µl PBS buffer were added and incubated for 2 h at 4°C. The beads were washed 4 times with 0.1% Tween 20 in PBS buffer and the bound proteins were eluted in SDS sample buffer and boiled. Input, unbound, and bound fractions of the in vitro expressed proteins were separated by SDS-PAGE and analyzed by phosphorimaging (FLA-7000, Fujifilm). The bound fractions were analyzed by dot blotting to ensure equal EID2 peptide levels were used in pull down assays (data not shown).

His-S-MAGEC2(129-339) = molecular target: T1, His-S-MAGEC2(129-339) (human, UniProt Q9UBF1 129-339); test: ELISA; PEPSCAN ELISA; biotinylated EID2 peptides (400 nM) on streptavidin-coated plates; His-S-MAGEC2(129-339) 200–400 nM, 4°C overnight; anti-His detection; settings: both partners purified
T1 construct: source: E. coli C41, purified (His-TRAP column, FPLC)
T1 sequence (looked up): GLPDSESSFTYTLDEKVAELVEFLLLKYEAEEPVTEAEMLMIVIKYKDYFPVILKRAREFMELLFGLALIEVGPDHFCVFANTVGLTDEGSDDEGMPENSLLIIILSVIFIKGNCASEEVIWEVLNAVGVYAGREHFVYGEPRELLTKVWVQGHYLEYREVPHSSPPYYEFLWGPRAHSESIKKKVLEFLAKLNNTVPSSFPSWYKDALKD

- binding affinity to MAGEC2 relative to wild-type peptide (MAGEC2(129-339) protein): ~30 % of WT affinity
- binding affinity to MAGEC2 compared with wild-type peptide (in words) (MAGEC2(129-339) protein): significantly reduced
- binding of necdin to peptide (pull-down, in words) (necdin (aa 1-321)): comparable to the wild-type peptide
Molecule: ARNPHRVDLDILTFTIALTAS [peptide #1, EID2 alanine mutant peptide Q197A]

- binding affinity to MAGEC2 relative to wild-type peptide (MAGEC2(129-339) protein): < 20 % of WT affinity
- binding affinity to MAGEC2 compared with wild-type peptide (in words) (MAGEC2(129-339) protein): significantly reduced
- binding of necdin to peptide (pull-down, in words) (necdin (aa 1-321)): comparable to the wild-type peptide
Molecule: QANPHRVDLDILTFTIALTAS [peptide #2, EID2 alanine mutant peptide R198A]

- binding affinity to MAGEC2 relative to wild-type peptide (MAGEC2(129-339) protein): ~30 % of WT affinity
Molecule: QRNPHRVDLAILTFTIALTAS [peptide #10, EID2 alanine mutant peptide D206A]

- binding affinity to MAGEC2 relative to wild-type peptide (MAGEC2(129-339) protein): ~30 % of WT affinity
Molecule: QRNPHRVDLDALTFTIALTAS [peptide #11, EID2 alanine mutant peptide I207A]

- binding affinity to MAGEC2 relative to wild-type peptide (MAGEC2(129-339) protein): < 20 % of WT affinity
- binding of necdin to peptide (pull-down, in words) (necdin (aa 1-321)): significantly reduced
Molecule: QRNPHRVDLDILTATIALTAS [peptide #14, EID2 alanine mutant peptide F210A]

- binding affinity to MAGEC2 relative to wild-type peptide (MAGEC2(129-339) protein): < 20 % of WT affinity
- binding of necdin to peptide (pull-down, in words) (necdin (aa 1-321)): significantly reduced
Molecule: QRNPHRVDLDILTFTAALTAS [peptide #16, EID2 alanine mutant peptide I212A]

- binding affinity to MAGEC2 relative to wild-type peptide (MAGEC2(129-339) protein): < 20 % of WT affinity
Molecule: QRNPHRVDLDILTFTIAATAS [peptide #17, EID2 alanine mutant peptide L214A]

- binding affinity to MAGEC2 relative to wild-type peptide (MAGEC2(129-339) protein): ~30 % of WT affinity
Molecule: QRNPHRVDLDILTFTIALAAS [peptide #18, EID2 alanine mutant peptide T215A]

- binding result (His-S-MAGEC2(129-339)): binds
Molecule: Biotin-SGSGQRNPHRVALDILTFTIALTAS (source: synthetic peptide (Mimotopes)) [EID2 peptide #8 (D204A)]

More lines, now with the values behind:

Molecule: QRNPHAVDLDILTFTIALTAS [peptide #6, EID2 alanine mutant peptide R202A]
- binding affinity to MAGEC2 relative to wild-type peptide (MAGEC2(129-339) protein): < 20 % of WT affinity

Molecule: QRNPHRVALDILTFTIALTAS [peptide #8, EID2 alanine mutant peptide D204A]
- binding affinity to MAGEC2 compared with wild-type peptide (in words) (MAGEC2(129-339) protein): comparable to that of the wild-type peptide

Molecule: QRNPHRVDADILTFTIALTAS [peptide #9, EID2 alanine mutant peptide L205A]
- binding affinity to MAGEC2 relative to wild-type peptide (MAGEC2(129-339) protein): ~30 % of WT affinity

Molecule: QRNPHRVDLDIATFTIALTAS [peptide #12, EID2 alanine mutant peptide L208A]
- binding affinity to MAGEC2 relative to wild-type peptide (MAGEC2(129-339) protein): ~30 % of WT affinity

Molecule: QRNPHRVDLDILTFTIALTAA [peptide #19, EID2 alanine mutant peptide S217A]
- binding affinity to MAGEC2 relative to wild-type peptide (MAGEC2(129-339) protein): ~30 % of WT affinity

Molecule: Biotin-SGSGQRNPHRVDLDILAFTIALTAS (source: synthetic peptide (Mimotopes)) [EID2 peptide #13]
- binding result (His-S-MAGEC2(129-339)): binds

Molecule: Biotin-SGSGQRNPHRVDLDILTFAIALTAS (source: synthetic peptide (Mimotopes)) [EID2 peptide #15]
- binding result (His-S-MAGEC2(129-339)): binds

B1: EID2 WT peptide (aa 197-217) (peptide)
peptide: Biotin-SGSGQRNPHRVDLDILTFTIALTAS
notes: also called wild-type peptide; long EID2 peptide; source: synthetic peptide (Mimotopes); not shown: biotin-SGSG spacer, N-terminal, kept
- binding result (His-S-MAGEC2(129-339)): binds

Molecule: Biotin-SGSGQRNPARVDLDILTFTIALTAS (source: synthetic peptide (Mimotopes)) [EID2 peptide #5]
- binding result (His-S-MAGEC2(129-339)): binds

Molecule: Biotin-SGSGQRNPHRADLDILTFTIALTAS (source: synthetic peptide (Mimotopes)) [EID2 peptide #7]
- binding result (His-S-MAGEC2(129-339)): binds

Molecule: Biotin-SGSGQRAPHRVDLDILTFTIALTAS (source: synthetic peptide (Mimotopes)) [EID2 peptide #3]
- binding result (His-S-MAGEC2(129-339)): binds

Molecule: Biotin-SGSGQRNAHRVDLDILTFTIALTAS (source: synthetic peptide (Mimotopes)) [EID2 peptide #4]
- binding result (His-S-MAGEC2(129-339)): binds
